Measurements: ChEMBL document CHEMBL5108048, “Potent GCN2 Inhibitor Capable of Reversing MDSC-Driven T Cell Suppression Demonstrates In Vivo Efficacy as a Single Agent and in Combination with Anti-Angiogenesis Therapy” (J Med Chem, 2022)

How the values were obtained:
eIF-2-alpha kinase GCN2 [1] = biological target: T1, eIF-2-alpha kinase GCN2 (Homo sapiens, UniProt Q9P2K8); test: Inhibition of GCN2 (unknown origin)
eIF-2-alpha kinase GCN2 [2] = biological target: T1, eIF-2-alpha kinase GCN2; test: Inhibition of GCN2 in human SK-OV-3 cells assessed as reduction in phosphorylation of eIF2alpha by cellular assay; type: cell-based
[3] = […] in Sprague-Dawley rat […] assessed as half life at 0.5 mg/kg,iv; type: ADME, organism-based
[4] = AUC (0-infinity) in Sprague-Dawley rat at 2 mg/kg,po; type: ADME, organism-based; parameters: time infinity, dose 2 mg/kg, route po; details: in vivo
[5] = Oral bioavailability in Sprague-Dawley rat at 2 mg/kg; type: ADME, organism-based; details: in vivo

T1 sequence (Q9P2K8 whole entry): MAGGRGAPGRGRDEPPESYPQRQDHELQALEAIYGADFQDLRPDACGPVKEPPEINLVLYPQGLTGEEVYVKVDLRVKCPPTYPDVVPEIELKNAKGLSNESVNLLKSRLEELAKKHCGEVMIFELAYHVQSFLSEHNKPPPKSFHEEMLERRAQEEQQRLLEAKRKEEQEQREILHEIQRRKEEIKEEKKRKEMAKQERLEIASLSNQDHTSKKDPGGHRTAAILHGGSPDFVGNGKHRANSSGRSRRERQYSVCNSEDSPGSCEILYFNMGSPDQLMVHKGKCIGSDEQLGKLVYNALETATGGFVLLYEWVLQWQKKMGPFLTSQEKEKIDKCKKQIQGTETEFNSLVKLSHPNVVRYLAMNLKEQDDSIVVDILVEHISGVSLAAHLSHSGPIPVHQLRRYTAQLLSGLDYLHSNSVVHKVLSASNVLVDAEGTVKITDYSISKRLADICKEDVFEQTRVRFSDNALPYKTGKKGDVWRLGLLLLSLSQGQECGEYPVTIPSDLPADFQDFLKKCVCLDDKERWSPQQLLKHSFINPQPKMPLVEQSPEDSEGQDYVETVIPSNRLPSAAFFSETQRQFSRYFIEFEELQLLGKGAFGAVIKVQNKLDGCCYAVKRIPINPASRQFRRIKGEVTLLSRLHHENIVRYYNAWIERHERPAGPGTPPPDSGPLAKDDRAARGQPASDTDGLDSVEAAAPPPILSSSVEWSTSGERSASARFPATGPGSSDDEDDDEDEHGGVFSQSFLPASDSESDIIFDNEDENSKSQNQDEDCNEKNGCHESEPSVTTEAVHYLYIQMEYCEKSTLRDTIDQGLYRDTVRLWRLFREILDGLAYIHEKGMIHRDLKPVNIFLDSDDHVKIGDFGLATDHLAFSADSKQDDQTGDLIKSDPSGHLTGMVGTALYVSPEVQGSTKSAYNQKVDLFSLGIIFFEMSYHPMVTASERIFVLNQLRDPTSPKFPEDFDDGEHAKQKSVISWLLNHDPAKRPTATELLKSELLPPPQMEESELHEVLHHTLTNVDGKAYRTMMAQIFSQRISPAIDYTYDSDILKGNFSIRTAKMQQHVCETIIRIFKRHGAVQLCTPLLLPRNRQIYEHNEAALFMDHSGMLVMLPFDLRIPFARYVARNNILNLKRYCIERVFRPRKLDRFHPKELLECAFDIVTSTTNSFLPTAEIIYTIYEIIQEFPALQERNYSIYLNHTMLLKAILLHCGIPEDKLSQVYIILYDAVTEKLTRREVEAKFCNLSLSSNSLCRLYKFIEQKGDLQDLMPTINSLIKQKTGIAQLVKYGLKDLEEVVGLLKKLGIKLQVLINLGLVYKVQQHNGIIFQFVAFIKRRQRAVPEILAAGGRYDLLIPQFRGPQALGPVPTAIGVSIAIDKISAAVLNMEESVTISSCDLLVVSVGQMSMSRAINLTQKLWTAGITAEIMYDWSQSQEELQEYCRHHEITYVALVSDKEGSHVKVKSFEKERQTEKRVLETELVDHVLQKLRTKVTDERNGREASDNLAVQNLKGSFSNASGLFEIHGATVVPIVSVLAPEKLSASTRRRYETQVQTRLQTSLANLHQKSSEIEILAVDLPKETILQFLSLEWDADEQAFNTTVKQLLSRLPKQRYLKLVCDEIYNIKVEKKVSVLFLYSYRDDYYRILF

| SMILES | IC50 (eIF-2-alpha kinase GCN2 [1]) [µM] | IC50 (eIF-2-alpha kinase GCN2 [2]) [µM] | further results |
| --- | --- | --- | --- |
| Clc1nn(-c2ccc3ncccc3c2)c2nc(Nc3cnn(C4CCNCC4)c3)ncc12 | 0.005 | – | – |
| CNC(=O)[C@@H]1CC[C@@H](Nc2ncc3c(Br)nn(-c4ccc5ncccc5c4)c3n2)C1 | 0.021 | 0.025 | – |
| Brc1nn(-c2ccc3ncccc3c2)c2nc(N[C@@H]3CC[C@@H](c4ncc[nH]4)C3)ncc12 (relative stereo) | 0.021 | 0.545 | – |
| COCCNC(=O)[C@@H]1CC[C@@H](Nc2ncc3c(Br)nn(-c4ccc5ncccc5c4)c3n2)C1 | 0.005 | 0.02 | – |
| COCc1noc([C@@H]2CC[C@@H](Nc3ncc4c(Br)nn(-c5ccc6ncccc6c5)c4n3)C2)n1 | 0.106 | – | – |
| COCCNC(=O)CCNc1ncc2c(Br)nn(-c3ccc4ncccc4c3)c2n1 | > 1 | – | – |
| COCCC(=O)N[C@@H]1CC[C@@H](Nc2ncc3c(Br)nn(-c4ccc5ncccc5c4)c3n2)C1 | 0.074 | 0.159 | – |
| COCCNC(=O)[C@H]1C[C@H](Nc2ncc3c(Br)nn(-c4ccc5ncccc5c4)c3n2)C1 | 0.04 | 0.086 | – |
| CCn1cc(Nc2ncc3ccn(-c4ccc(OC)cc4)c3n2)cn1 | 0.405 | – | – |
| Brc1nn(-c2ccc3ncccc3c2)c2nc(Nc3cnn(C4CCNCC4)c3)ncc12 | 0.003 | 0.61 | – |
| CCn1cc(Nc2ncc3cnn(-c4ccc(OC)cc4)c3n2)cn1 | 0.133 | – | – |
| CCn1cc(Nc2ncc3c(C)nn(-c4ccc(C#N)cc4)c3n2)cn1 | 0.056 | – | – |
| COCCNC(=O)[C@H]1CC[C@H](Nc2ncc3c(Br)nn(-c4ccc5ncccc5c4)c3n2)CC1 | 0.159 | 0.628 | – |
| COCCNC(=O)[C@H]1CC[C@@H](Nc2ncc3c(Br)nn(-c4ccc5ncccc5c4)c3n2)C1 | 0.061 | 0.156 | – |
| CCn1cc(Nc2ccn3ncc(-c4ccc(OC)cc4)c3n2)cn1 | > 1 | – | – |
| CCn1cc(Nc2ncc3cccc(Nc4ccc(OC)cc4)c3n2)cn1 | > 1 | – | – |
| CCn1cc(Nc2ncc3c(C)nn(-c4ccc5ncccc5c4)c3n2)cn1 | 0.023 | – | – |
| COCCNC(=O)[C@@H]1CC[C@H](Nc2ncc3c(Br)nn(-c4ccc5ncccc5c4)c3n2)C1 | 0.923 | – | – |
| COCCNC(=O)[C@H]1CC[C@@H](Nc2ncc3c(Br)nn(-c4ccc5ncccc5c4)c3n2)CC1 | 0.211 | 0.763 | – |
| CCn1cc(Nc2ncc3cccc(-c4ccc(OC)cc4)c3n2)cn1 | > 1 | – | – |
| CS(=O)(=O)N1CC[C@@H](Nc2ncc3c(Br)nn(-c4ccc5ncccc5c4)c3n2)C1 | 0.09 | 0.378 | – |
| COCCNC(=O)[C@H]1CC[C@H](Nc2ncc3c(Br)nn(-c4ccc5ncccc5c4)c3n2)C1 | 0.144 | 0.183 | – |
| Cc1nn(-c2ccc3ncccc3c2)c2nc(Nc3cnn(C4CCNCC4)c3)ncc12 | 0.011 | – | – |
| FC(F)(F)c1nn(-c2ccc3ncccc3c2)c2nc(Nc3cnn(C4CCNCC4)c3)ncc12 | 0.168 | – | – |
| COCCNC(=O)CNc1ncc2c(Br)nn(-c3ccc4ncccc4c3)c2n1 | > 1 | – | – |
| CCn1cc(Nc2ncc3c(C)nn(-c4ccc(OC)cc4)c3n2)cn1 | 0.081 | – | – |

Further lines, with some results ahead:

| IC50 (eIF-2-alpha kinase GCN2 [1]) [µM] | IC50 (eIF-2-alpha kinase GCN2 [2]) [µM] | SMILES | further results |
| --- | --- | --- | --- |
| 0.211 | – | CNC(=O)[C@]1(C)CC[C@@H](Nc2ncc3c(Br)nn(-c4ccc(-c5nnc(C)s5)c(CS(C)(=O)=O)c4)c3n2)C1 | – |
| 0.008 | 0.033 | CNC(=O)[C@]1(C)CC[C@@H](Nc2ncc3c(Br)nn(-c4ccc(-c5nnc(C)s5)c(F)c4)c3n2)C1 | – |
| 0.017 | 0.021 | CNC(=O)[C@]1(C)CC[C@@H](Nc2ncc3c(Br)nn(-c4ccc5ncccc5c4)c3n2)C1 | – |
| 0.016 | 0.016 | CNC(=O)[C@]1(C)CC[C@@H](Nc2ncc3c(Br)nn(-c4ccc(-c5nnc(C)o5)cc4)c3n2)C1 | – |
| 0.01 | 0.029 | CNC(=O)[C@]1(C)CC[C@@H](Nc2ncc3c(Br)nn(-c4ccc(-c5nnc(C)s5)c(CCC#N)c4)c3n2)C1 | half-life [3]: 13 min; AUC(0-inf) [4]: 1.9 µg·h/mL; bioavailability [5]: 42% |
| 0.043 | 0.106 | CNS(=O)(=O)[C@@H]1CC[C@@H](Nc2ncc3c(Br)nn(-c4ccc5ncccc5c4)c3n2)C1 | – |
| 0.008 | 0.035 | CNC(=O)[C@]1(C)CC[C@@H](Nc2ncc3c(Br)nn(-c4ccc(-c5nnc(C)s5)c(C#N)c4)c3n2)C1 | half-life [3]: 51 min; AUC(0-inf) [4]: 1.15 µg·h/mL; bioavailability [5]: 39% |
| 0.015 | 0.24 | CNC(=O)[C@]1(C)CC[C@@H](Nc2ncc3c(Br)nn(-c4ccc(-c5nnc(C)s5)c(CCN)c4)c3n2)C1 | – |
| 0.016 | 0.025 | CNC(=O)[C@]1(C)CC[C@@H](Nc2ncc3c(Br)nn(-c4ccc(-c5nnc(C)s5)c(CCO)c4)c3n2)C1 | half-life [3]: 47 min; AUC(0-inf) [4]: 0.518 µg·h/mL; bioavailability [5]: 15% |
| 0.055 | 0.262 | COCCS(=O)(=O)N[C@@H]1CC[C@@H](Nc2ncc3c(Br)nn(-c4ccc5ncccc5c4)c3n2)C1 (relative stereo) | – |
| 0.002 | 0.009 | CNC(=O)[C@]1(C)CC[C@@H](Nc2ncc3c(Br)nn(-c4ccc(-c5nnc(C)s5)c(CCS(C)(=O)=O)c4)c3n2)C1 | half-life [3]: 39 min; AUC(0-inf) [4]: 0.026 µg·h/mL; bioavailability [5]: 3% |
| 0.359 | – | CNC(=O)[C@]1(C)CC[C@@H](Nc2ncc3c(Br)nn(-c4ccc(-c5nnc(C)s5)cc4F)c3n2)C1 | – |
| 0.076 | – | CNC(=O)[C@]1(C)CC[C@@H](Nc2ncc3c(Br)nn(-c4ccc(-c5ncc(C)s5)cc4)c3n2)C1 | – |
| 0.091 | – | CNC(=O)[C@]1(C)CC[C@@H](Nc2ncc3c(Br)nn(-c4ccc(-c5nnc(C)s5)c(CO)c4)c3n2)C1 | – |
| 0.078 | – | CNC(=O)[C@]1(C)CC[C@@H](Nc2ncc3c(Br)nn(-c4ccc(-c5nnc(C)s5)c(CC#N)c4)c3n2)C1 | – |
| 0.029 | – | CNC(=O)[C@]1(C)CC[C@@H](Nc2ncc3c(Br)nn(-c4ccc(-c5nnc(C)s5)c(CCN(C)C)c4)c3n2)C1 | – |
| 0.027 | – | CNC(=O)[C@]1(C)CC[C@@H](Nc2ncc3c(Br)nn(-c4ccc(-c5cnc(C)s5)cc4)c3n2)C1 | – |
| 0.109 | – | CNC(=O)[C@]1(C)CC[C@@H](Nc2ncc3c(Br)nn(-c4ccc(-c5nnc(C)s5)c(CNS(C)(=O)=O)c4)c3n2)C1 | – |
| 0.061 | – | CNC(=O)[C@]1(C)CC[C@@H](Nc2ncc3c(Br)nn(-c4ccc(-c5nnc(C)s5)c(S(C)(=O)=O)c4)c3n2)C1 | – |
